Measured values as given in ChEMBL document CHEMBL3758105 (J Med Chem, 2016).
Values after ≈ are worked out from the molar mass of the structure shown. Blank lines part the entries; values can stand above or below the molecule they belong to.

Experiments:
[1] = Intrinsic clearance in human liver microsomes measured over 40 mins by HPLC/MS analysis; assay type: ADME; settings: read-out: CLH
Canis familiaris [2] = assay: Free AUC in beagle dog at 1 mg/kg, po administered as cassette dosing; assay type: ADME, organism-based, Canis lupus familiaris; settings: in vivo
Collagenase 3 = Collagenase 3 (Homo sapiens, UniProt P45452); assay: Inhibition of full length human recombinant MMP13 using MCA-Arg-Pro-Leu-Gly-Leu-Dpa-Ala-Arg-Glu-Arg-NH2 as substrate preincubated for 60 mins followed by substrate addition by fluorescence assay
physchem = settings: buffer, pH 7.4
[3] = Plasma protein binding in beagle dog at 1 mg/kg, po administered as cassette dosing; assay type: ADME, organism-based, Canis lupus familiaris; settings: read-out: PPB (converted)
Canis familiaris [4] = assay: Free Cmax in beagle dog at 1 mg/kg, po administered as cassette dosing; assay type: ADME, organism-based, Canis lupus familiaris; settings: in vivo
[5] = Intrinsic clearance in rat liver microsomes measured over 40 mins by HPLC/MS analysis; assay type: ADME; settings: read-out: CLH
Stromelysin-1 = Stromelysin-1 (Homo sapiens, UniProt P08254); assay: Inhibition of MMP3 (unknown origin) catalytic domain using MCA-Arg-Pro-Leu-Gly-Leu-Dpa-Ala-Arg-Glu-Arg-NH2 as substrate preincubated for 60 mins followed by substrate addition by fluorescence assay
[6] = Plasma protein binding in human; assay type: ADME, cell-free; settings: read-out: PPB (converted)
[7] = Thermodynamic solubility of the compound in crystalline solid form in phosphate buffer at pH 7.4; assay type: physicochemical; settings: read-out: Therm_solubility
[8] = Clearance in Sprague-Dawley rat at 1 mg/kg, iv administered as bolus dose by LC-MS/MS analysis; assay type: ADME, organism-based; settings: in vivo
[9] = Oral bioavailability in Sprague-Dawley rat at 1 mg/kg; assay type: ADME, organism-based; settings: in vivo
[10] = biological target: T1, Organic anion transporter 3 (Homo sapiens, UniProt Q8TCC7); assay: Inhibition of human OAT3 expressed in HEK cells assessed as reduction of [3H]-estrone sulfate uptake by radioactivity counting analysis; assay type: cell-based, HEK293
T1 sequence (Q8TCC7 whole entry): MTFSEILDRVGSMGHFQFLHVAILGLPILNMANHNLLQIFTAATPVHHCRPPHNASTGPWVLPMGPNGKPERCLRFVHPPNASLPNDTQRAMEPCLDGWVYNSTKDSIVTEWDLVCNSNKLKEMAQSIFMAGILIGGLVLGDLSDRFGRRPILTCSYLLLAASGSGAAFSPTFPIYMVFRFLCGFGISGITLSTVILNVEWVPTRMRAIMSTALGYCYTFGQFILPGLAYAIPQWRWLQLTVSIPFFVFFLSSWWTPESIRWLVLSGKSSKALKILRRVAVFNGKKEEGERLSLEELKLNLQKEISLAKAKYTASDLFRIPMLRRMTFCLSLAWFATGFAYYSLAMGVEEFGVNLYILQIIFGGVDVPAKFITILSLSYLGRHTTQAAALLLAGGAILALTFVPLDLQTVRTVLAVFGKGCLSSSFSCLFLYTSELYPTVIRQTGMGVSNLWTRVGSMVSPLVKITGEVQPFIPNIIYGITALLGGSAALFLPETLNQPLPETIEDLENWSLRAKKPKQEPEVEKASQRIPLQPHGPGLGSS

[11] = Half life of the compound assessed as compound rearrangement; assay type: physicochemical
Rattus norvegicus [12] = assay: Drug level in Sprague-Dawley rat treated with N-(4-Fluoro-3-methoxybenzyl)-6-(2-(((2S,5R)-5-(hydroxymethyl)-1,4-dioxan-2-yl)methyl)-2H-tetrazol-5-yl)-2-methylpyrimidine-4-carboxamide at 1 mg/kg, po; assay type: ADME, organism-based; settings: in vivo
Hepatocyte [13] = assay: Drug level in human hepatocytes treated with N-(4-Fluoro-3-methoxybenzyl)-6-(2-(((2S,5R)-5-(hydroxymethyl)-1,4-dioxan-2-yl)methyl)-2H-tetrazol-5-yl)-2-methylpyrimidine-4-carboxamide; assay type: ADME, cell-based
Cynomolgus monkey [14] = assay: Drug level in cynomolgus monkey treated with N-(4-Fluoro-3-methoxybenzyl)-6-(2-(((2S,5R)-5-(hydroxymethyl)-1,4-dioxan-2-yl)methyl)-2H-tetrazol-5-yl)-2-methylpyrimidine-4-carboxamide at 1 mg/kg, po; assay type: ADME, organism-based, Macaca fascicularis; settings: in vivo
[15] = Drug level in cynomolgus monkey urine treated with N-(4-Fluoro-3-methoxybenzyl)-6-(2-(((2S,5R)-5-(hydroxymethyl)-1,4-dioxan-2-yl)methyl)-2H-tetrazol-5-yl)-2-methylpyrimidine-4-carboxamide; assay type: ADME, tissue-based, Macaca fascicularis; settings: in vivo
[16] = Drug level in cynomolgus monkey hepatocytes treated with N-(4-Fluoro-3-methoxybenzyl)-6-(2-(((2S,5R)-5-(hydroxymethyl)-1,4-dioxan-2-yl)methyl)-2H-tetrazol-5-yl)-2-methylpyrimidine-4-carboxamide; assay type: ADME, cell-based, Macaca fascicularis, Hepatocyte
[17] = Clearance in beagle dog at 1 mg/kg, po and iv; assay type: ADME, organism-based, Canis lupus familiaris; settings: in vivo
[18] = Drug metabolism in cynomolgus monkey urine assessed as sulfate conjugation; assay type: ADME, Macaca fascicularis
[19] = Drug metabolism in cynomolgus monkey urine assessed as methyl oxidation; assay type: ADME, tissue-based, Macaca fascicularis
Cytochrome P450 2C9 = Cytochrome P450 2C9 (Homo sapiens, UniProt P11712); assay: Inhibition of CYP2C9 in human liver microsomes assessed as reduction of diclofenac metabolism after 8 mins; assay type: ADME
Cytochrome P450 3A4 = Cytochrome P450 3A4 (Homo sapiens, UniProt P08684); assay: Inhibition of CYP3A4 (unknown origin); assay type: ADME
Cynomolgus monkey [20] = assay: Nephrotoxicity in cynomolgus monkey at 50 to 1000 mg/kg/day, po administered for 14 days; assay type: toxicity, organism-based, Macaca fascicularis; settings: in vivo, 336 h
Cytochrome P450 2D6 = Cytochrome P450 2D6 (Homo sapiens, UniProt P10635); assay: Inhibition of CYP2D6 (unknown origin); assay type: ADME
[21] = Oral bioavailability in beagle dog at 1 mg/kg; assay type: ADME, organism-based, Canis lupus familiaris; settings: in vivo
[22] = Drug metabolism in cynomolgus monkey hepatocytes assessed as methyl oxidation; assay type: ADME, cell-based, Macaca fascicularis, Hepatocyte
Hepatocyte [23] = assay: Drug metabolism in human hepatocytes assessed as methyl oxidation; assay type: ADME, cell-based
Hepatocyte [24] = assay: Drug metabolism in human hepatocytes assessed as sulfate conjugation; assay type: ADME, cell-based
Cytochrome P450 1A2 = biological target: T2, Cytochrome P450 1A2 (Homo sapiens, UniProt P05177); assay: Inhibition of CYP1A2 (unknown origin); assay type: ADME
T2 sequence (P05177 whole entry): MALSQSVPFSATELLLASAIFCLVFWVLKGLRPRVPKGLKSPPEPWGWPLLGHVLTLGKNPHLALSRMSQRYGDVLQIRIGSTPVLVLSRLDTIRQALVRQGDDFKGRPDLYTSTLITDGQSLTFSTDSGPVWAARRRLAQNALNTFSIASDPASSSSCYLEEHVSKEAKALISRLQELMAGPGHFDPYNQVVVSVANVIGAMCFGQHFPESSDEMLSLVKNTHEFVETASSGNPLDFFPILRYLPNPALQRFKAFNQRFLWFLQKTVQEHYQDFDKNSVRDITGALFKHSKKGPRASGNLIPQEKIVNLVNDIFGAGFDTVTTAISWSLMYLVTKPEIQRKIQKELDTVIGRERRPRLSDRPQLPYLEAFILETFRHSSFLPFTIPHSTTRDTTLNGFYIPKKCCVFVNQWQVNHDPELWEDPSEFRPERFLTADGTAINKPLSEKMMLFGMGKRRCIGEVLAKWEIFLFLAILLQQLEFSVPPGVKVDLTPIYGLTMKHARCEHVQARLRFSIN

Hepatocyte [25] = assay: Drug metabolism in human hepatocytes assessed as (2S,5S)-5-((5-(6-((4-Fluoro-3-methoxybenzyl)carbamoyl)-2-methylpyrimidin-4-yl)-2H-tetrazol-2-yl)methyl)-1,4-dioxane-2-carboxylic acid formation; assay type: ADME, cell-based
[26] = Drug metabolism in cynomolgus monkey urine assessed as (2S,5S)-5-((5-(6-((4-Fluoro-3-methoxybenzyl)carbamoyl)-2-methylpyrimidin-4-yl)-2H-tetrazol-2-yl)methyl)-1,4-dioxane-2-carboxylic acid formation; assay type: ADME, tissue-based, Macaca fascicularis
[27] = Drug metabolism in cynomolgus monkey urine assessed as glucuronidation; assay type: ADME, tissue-based, Macaca fascicularis
[28] = Drug metabolism in cynomolgus monkey hepatocytes assessed as demethylation; assay type: ADME, cell-based, Macaca fascicularis, Hepatocyte
[29] = Clearance in cynomolgus monkey at 1 mg/kg, po and iv; assay type: ADME, organism-based, Macaca fascicularis; settings: in vivo
[30] = Drug metabolism in cynomolgus monkey hepatocytes assessed as glucuronidation; assay type: ADME, cell-based, Macaca fascicularis, Hepatocyte
[31] = Drug metabolism in cynomolgus monkey hepatocytes assessed as sulfate conjugation; assay type: ADME, cell-based, Macaca fascicularis, Hepatocyte
[32] = Oral bioavailability in cynomolgus monkey at 1 mg/kg; assay type: ADME, organism-based, Macaca fascicularis; settings: in vivo
Hepatocyte [33] = assay: Drug metabolism in human hepatocytes assessed as glucuronidation; assay type: ADME, cell-based
Cynomolgus monkey [34] = assay: Drug metabolism in cynomolgus monkey assessed as (2S,5S)-5-((5-(6-((4-Fluoro-3-methoxybenzyl)carbamoyl)-2-methylpyrimidin-4-yl)-2H-tetrazol-2-yl)methyl)-1,4-dioxane-2-carboxylic acid formation at 1 mg/kg, po; assay type: ADME, organism-based, Macaca fascicularis; settings: in vivo
[35] = Drug metabolism in cynomolgus monkey hepatocytes assessed as (2S,5S)-5-((5-(6-((4-Fluoro-3-methoxybenzyl)carbamoyl)-2-methylpyrimidin-4-yl)-2H-tetrazol-2-yl)methyl)-1,4-dioxane-2-carboxylic acid formation; assay type: ADME, cell-based, Macaca fascicularis, Hepatocyte
[36] = Drug metabolism in cynomolgus monkey urine assessed as demethylation; assay type: ADME, tissue-based, Macaca fascicularis
Hepatocyte [37] = assay: Drug metabolism in human hepatocytes assessed as demethylation; assay type: ADME, cell-based
Rattus norvegicus [38] = assay: Drug metabolism in Sprague-Dawley rat assessed as (2S,5S)-5-((5-(6-((4-Fluoro-3-methoxybenzyl)carbamoyl)-2-methylpyrimidin-4-yl)-2H-tetrazol-2-yl)methyl)-1,4-dioxane-2-carboxylic acid formation at 1 mg/kg, po; assay type: ADME, organism-based; settings: in vivo
[39] = biological target: Matrix metalloproteinase-14 (Homo sapiens, UniProt P50281); assay: Inhibition of MMP14 (unknown origin) catalytic domain using MCA-Arg-Pro-Leu-Gly-Leu-Dpa-Ala-Arg-Glu-Arg-NH2 as substrate preincubated for 60 mins followed by substrate addition by fluorescence assay

Stromelysin-1, sequence (P08254 whole entry, the tested form may be a part): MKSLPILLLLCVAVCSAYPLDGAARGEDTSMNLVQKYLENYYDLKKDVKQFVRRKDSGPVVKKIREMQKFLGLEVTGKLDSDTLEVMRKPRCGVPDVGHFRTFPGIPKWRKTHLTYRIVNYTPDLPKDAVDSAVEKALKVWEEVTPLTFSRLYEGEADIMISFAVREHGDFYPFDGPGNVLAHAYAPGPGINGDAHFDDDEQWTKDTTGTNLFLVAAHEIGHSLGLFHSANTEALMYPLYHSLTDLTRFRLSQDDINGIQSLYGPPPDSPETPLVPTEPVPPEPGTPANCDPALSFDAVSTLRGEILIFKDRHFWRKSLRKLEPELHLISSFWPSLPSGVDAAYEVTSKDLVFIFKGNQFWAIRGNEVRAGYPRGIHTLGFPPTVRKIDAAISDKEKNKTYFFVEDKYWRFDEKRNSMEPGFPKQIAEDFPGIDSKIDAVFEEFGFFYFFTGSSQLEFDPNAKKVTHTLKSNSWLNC
Cytochrome P450 2C9, sequence (P11712 whole entry): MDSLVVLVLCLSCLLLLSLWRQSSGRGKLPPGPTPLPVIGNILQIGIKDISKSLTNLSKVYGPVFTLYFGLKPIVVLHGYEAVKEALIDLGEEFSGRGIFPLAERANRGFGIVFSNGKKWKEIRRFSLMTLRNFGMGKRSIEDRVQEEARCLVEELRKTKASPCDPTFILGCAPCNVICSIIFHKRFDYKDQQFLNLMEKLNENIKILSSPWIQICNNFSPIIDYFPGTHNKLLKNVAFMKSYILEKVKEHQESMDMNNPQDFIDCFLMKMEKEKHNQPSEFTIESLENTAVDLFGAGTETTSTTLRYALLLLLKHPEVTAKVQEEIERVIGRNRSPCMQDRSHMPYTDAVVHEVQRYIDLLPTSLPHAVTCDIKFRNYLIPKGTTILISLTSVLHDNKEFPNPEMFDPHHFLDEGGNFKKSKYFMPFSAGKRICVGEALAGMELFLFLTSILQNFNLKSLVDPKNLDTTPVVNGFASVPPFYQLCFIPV
Cytochrome P450 3A4, sequence (P08684 whole entry): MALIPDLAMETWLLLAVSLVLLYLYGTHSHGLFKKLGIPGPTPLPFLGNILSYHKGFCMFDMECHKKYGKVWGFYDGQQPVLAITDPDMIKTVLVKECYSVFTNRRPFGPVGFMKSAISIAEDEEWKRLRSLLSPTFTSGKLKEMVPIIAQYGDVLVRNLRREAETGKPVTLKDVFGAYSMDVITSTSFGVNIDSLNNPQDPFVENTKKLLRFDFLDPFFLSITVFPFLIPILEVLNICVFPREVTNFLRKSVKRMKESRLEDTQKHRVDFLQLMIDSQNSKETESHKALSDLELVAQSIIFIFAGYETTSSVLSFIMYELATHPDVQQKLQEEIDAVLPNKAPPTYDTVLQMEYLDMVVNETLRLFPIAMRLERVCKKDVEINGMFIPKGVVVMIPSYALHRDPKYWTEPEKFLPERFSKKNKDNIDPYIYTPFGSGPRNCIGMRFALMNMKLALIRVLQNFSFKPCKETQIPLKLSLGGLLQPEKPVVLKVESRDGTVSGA
Cytochrome P450 2D6, sequence (P10635 whole entry): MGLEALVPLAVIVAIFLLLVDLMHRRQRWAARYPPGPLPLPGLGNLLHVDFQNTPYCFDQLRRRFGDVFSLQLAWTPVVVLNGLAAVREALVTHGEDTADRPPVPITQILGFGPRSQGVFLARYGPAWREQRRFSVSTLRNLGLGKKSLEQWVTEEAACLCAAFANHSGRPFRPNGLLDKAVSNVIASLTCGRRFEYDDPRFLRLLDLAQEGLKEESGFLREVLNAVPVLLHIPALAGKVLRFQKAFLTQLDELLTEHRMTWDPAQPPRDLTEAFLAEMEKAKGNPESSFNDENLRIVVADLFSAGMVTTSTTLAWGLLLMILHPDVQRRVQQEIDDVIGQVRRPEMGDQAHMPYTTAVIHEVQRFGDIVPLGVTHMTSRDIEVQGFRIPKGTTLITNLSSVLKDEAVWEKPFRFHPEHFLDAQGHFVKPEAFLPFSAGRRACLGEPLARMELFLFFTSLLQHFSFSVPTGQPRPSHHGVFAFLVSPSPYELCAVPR

half-life [11]: 30 min
Structure (SMILES): O=C(O)Cc1ccccc1Nc1c(Cl)cccc1Cl [DICLOFENAC]

Drug metabolism (Rattus norvegicus [12]): metabolite_detected | Drug metabolism (Hepatocyte [13]): metabolite_detected | Drug metabolism (Cynomolgus monkey [14]): metabolite_detected | Ki (Collagenase 3): 0.0002 µM | Drug metabolism [15]: metabolite_detected | Drug metabolism [16]: metabolite_detected
Structure (SMILES): COc1cc(CNC(=O)c2cc(-c3nnn(C[C@H]4CO[C@H](C(=O)O)CO4)n3)nc(C)n2)ccc1F

IC50 [10]: 59 µM
Structure (SMILES): COc1ccc(CNC(=O)c2cc3c(=O)n(Cc4ccc(C(=O)O)cc4)cnc3cn2)cc1

IC50 [39]: 10 µM
Structure (SMILES): CNC(=O)[C@@H](NC(=O)[C@H](CC(C)C)[C@H](O)C(=O)NO)C(C)(C)C

Second part, the molecule before the results:

Structure (SMILES): COc1cccc(CNC(=O)c2cc(-c3nnn(C[C@H]4CO[C@H](CO)CO4)n3)cc(C)n2)c1 (racemic)
microsomal CLint [1]: < 8 µL/min/mg | fAUC (Canis familiaris [2]): 1.23 µM·h | Ki (Collagenase 3): 0.0117 µM | logD (physchem): 2.04 | fraction unbound [3]: 0.24 | fCmax (Canis familiaris [4]): 66 nM | microsomal CLint [5]: 15.7 µL/min/mg | Ki (Stromelysin-1): > 10 µM | fraction unbound [6]: 0.14 | solubility thermodynamic [7]: 28 µM (≈ 12.7 µg/mL) | clearance [8]: 7.7 mL/min/kg | bioavailability [9]: 48%

Structure (SMILES): Cn1c(=O)n(Cc2ccc(C(=O)O)cc2)c(=O)c2cc(C#CCc3ccccc3)ccc21
IC50 [10]: 18 µM

Structure (SMILES): COc1cc(CNC(=O)c2cc(-c3nnn(C[C@H]4CO[C@H](CO)CO4)n3)nc(C)n2)ccc1F
clearance [17]: 8.2 mL/min/kg | Drug metabolism [18]: metabolite_detected | Drug metabolism [19]: metabolite_detected | IC50 (Cytochrome P450 2C9): > 30 µM | IC50 (Cytochrome P450 3A4): > 30 µM | Activity (Cynomolgus monkey [20]): Non-toxic | IC50 (Cytochrome P450 2D6): > 30 µM | bioavailability [21]: 64% | microsomal CLint [1]: < 8 µL/min/mg | Drug metabolism [22]: metabolite_detected | Ki (Collagenase 3): 0.0015 µM | Drug metabolism (Hepatocyte [23]): metabolite_detected | Drug metabolism (Hepatocyte [24]): metabolite_detected | IC50 (Cytochrome P450 1A2): > 30 µM | Drug metabolism (Hepatocyte [25]): metabolite_detected | Drug metabolism [26]: metabolite_detected | Ki (Stromelysin-1): > 10 µM | Drug metabolism [27]: metabolite_detected | Drug metabolism [28]: metabolite_detected | clearance [29]: 2.1 mL/min/kg | Drug metabolism [30]: metabolite_detected | Drug metabolism [31]: metabolite_detected | bioavailability [32]: 88% | clearance [8]: 18.2 mL/min/kg | Drug metabolism (Hepatocyte [33]): metabolite_detected | bioavailability [9]: 95% | Drug metabolism (Cynomolgus monkey [34]): metabolite_detected | Drug metabolism [35]: metabolite_detected | Drug metabolism [36]: metabolite_detected | Drug metabolism (Hepatocyte [37]): metabolite_detected | Drug metabolism (Rattus norvegicus [38]): metabolite_detected
